# According to patent US20230076310A1, “COMPOSITION USING NOVEL LACTOBACILLUS PLANTARUM KC3 STRAIN FOR PREVENTION OR TREATMENT OF IMMUNE IMPAIRMENT, RESPIRATORY INFLAMMATORY DISEASE, ALLERGY, AND ASTHMA AND USE THEREOF” (KT&G CORPORATION, priority 2020, published 2023):
# Bridge positions count the residues as written; N and C are the ends. Square brackets hold non-standard residues; d marks the D form. Peptide text beside a SMILES is read from it. * marks the point of attachment. Ileψ(thiazoline)Cys = CC[C@H](C)[C@H](N)C1=N[C@H](C(=O)*)CS1; dOrn = NCCC[C@@H](N)C(=O)O
# Tests used:
# [1] = tested on: Lactobacillus plantarum KC3; assay: Antibiotics resistance experiment (antibiotic strips on LSM solid medium); type: cell-based; settings: antibiotic strip on KC3 lawn, 37° C. for 24 hours
# Method: In order to confirm antibiotics resistance level of the new lactic acid bacteria from the of the Lactobacillus plantarum KC3 the present disclosure, an experiment was performed as follows by applying the method described in the document ([1] Mathur, S. and R. Singh, Antibiotic resistance in food lactic acid bacteria—A review. Int. J. Food Microbiol 2005 105: 281-295); [2] European Food Safety Authority, Guidance on the assessment of bacterial susceptibility to antimicrobials of human and veterinary importance: EFSA Panel on Additives and Products or Substances used in Animal Feed (FEEDAP). The EFSA Journal 2012 2740:1-10. doi:10.2903/j.efsa.2012.2740).
# To measure the antibiotics resistance level of the strain, an MIC test was carried out. Lactic acid bacteria that were inoculated into an MRS medium (DF0881-17-5, Difco) and cultured at 37° C. for 18 hours were spread on an LSM solid medium (90% iso-sensitest broth (CM0473, Oxoid), 10% MRS medium (DF0881-17-5, Difco), and 1.5% agar (214010, Difco)). Strips for each type of antibiotics, such as Amikacin (92018, Liofilchem srl), Gentamycin (92009, Liofilchem srl), Kanamycin (92034, Liofilchem srl), Streptomycin (92112, Liofilchem srl), Penicillin-G (92102, Liofilchem srl), Oxacillin (92015, Liofilchem srl), Ampicillin (920030, Liofilchem srl), Bacitracin (92019, Liofilchem srl), Rifampicin (92001, Liofilchem srl), Polymyxin B (92004, Liofilchem srl), Chloramphenico I (92075, Liofilchem srl), Vancomycin (92057, Liofilchem srl), and the like, were put on the medium, and the bacteria were grown at 37° C. for 24 hours.
# In Table 4, R indicates resistance and represents that the size of an inhibition zone is about 0 mm; IS indicates medium resistance and represents that the size of an inhibition zone is in a range of about 1 mm to about 5 mm; and S indicates […] and represents that the size of an inhibition zone is greater than about 5 mm.
# [2] = tested on: croton oil-induced mouse ear edema; assay: Croton oil-induced mouse ear edema test; type: in vivo, ICR mice; settings: 10 mg/kg BW oral, about 4 hours after 2.5% croton oil
# Method: To confirm anti-inflammatory effect of the probiotic lactic acid bacteria (Lactobacillus plantarum KC3, KC3) on ear edema, an experiment was performed according to the croton oil-induced mouse ear edema method by applying the method described in the document (Dong Wook Kim, Kun Ho Son, Hyeun Wook Chang, KiHwan Bae and Sam Sik Kang, Arch Pharm Res., 2003, 3, pp 232-236).
# To evaluate anti-inflammatory activity of the samples of the Example above, a croton oil-induced mouse ear edema test was carried out, and results thereof were obtained by measuring the ear thickness of the samples as shown in Table 8. […]
# About 1 hour after administration, 2.5% croton oil (C0421 available from TCI Company, […]) dissolved in acetone was applied evenly to the inside and outside of the right ear of each mice to induce ear edema. […] Then, the degree of edema in the ears of the mice was measured according to variations in speed by measuring the thickness of both ears using a thickness gauge (Digimatic thickness gauge, 547-301, Mitutoyo, Japan). Here, based on the degree of and the inhibition rate (%) was calculated based on the degree of edema of the mice in the negative control group (0.5% sodium carboxymethyl cellulose (CMC), Sigma-Aldrich 419273), inhibition rates (%) were calculated, and results thereof are shown in Table 8 below.
Compound,Antibiotic resistance (class) [1],"Antibiotic resistance, size of inhibition zone [1]",Inhibition rate of ear edema (% of control) [2],Thickness (ear) ([2]; edema control 0.806 ± 0.068)
NCC[C@H](O)C(=O)N[C@@H]1C[C@H](N)[C@@H](O[C@H]2O[C@H](CN)[C@@H](O)[C@H](O)[C@H]2O)[C@H](O)[C@H]1O[C@H]1O[C@H](CO)[C@@H](O)[C@H](N)[C@H]1O [Amikacin],IS (IS indicates medium resistance and represents that the size of an inhibition zone is in a range of about 1 mm to about 5 mm),(1 mm),–,–
CC1(C)S[C@@H]2[C@H](NC(=O)[C@H](N)c3ccccc3)C(=O)N2[C@H]1C(=O)O [Ampicillin],S (S indicates resistance and represents that the size of an inhibition zone is greater than about 5 mm),(14 mm),–,–
CC[C@H](C)[C@H](N)C1=N[C@H](C(=O)N[C@@H](CC(C)C)C(=O)N[C@H](CCC(=O)O)C(=O)N[C@H](C(=O)N[C@H]2CCCCNC(=O)[C@H](CC(N)=O)NC(=O)[C@@H](CC(=O)O)NC(=O)[C@H](Cc3cnc[nH]3)NC(=O)[C@@H](Cc3ccccc3)NC(=O)[C@H]([C@@H](C)CC)NC(=O)[C@@H](CCCN)NC2=O)[C@@H](C)CC)CS1 [Bacitracin] ({Ileψ(thiazoline)Cys}-L[dE]IK[dOrn]I[dF]H[dD]N; lactam 4-C),S (S indicates resistance and represents that the size of an inhibition zone is greater than about 5 mm),(7 mm),–,–
O=C(N[C@H](CO)[C@H](O)c1ccc([N+](=O)[O-])cc1)C(Cl)Cl [Chloramphenicol],S (S indicates resistance and represents that the size of an inhibition zone is greater than about 5 mm),(10 mm),–,–
COc1ccc2c(c1)c(CC(=O)O)c(C)n2C(=O)c1ccc(Cl)cc1 [Indomethacin],–,–,25.6 ± 2.2 % of control,0.684 ± 0.054
NC[C@H]1O[C@H](O[C@H]2[C@H](O)[C@@H](O[C@H]3O[C@H](CO)[C@@H](O)[C@H](N)[C@H]3O)[C@H](N)C[C@@H]2N)[C@H](O)[C@@H](O)[C@@H]1O [Kanamycin],R (R indicates resistance and represents that the size of an inhibition zone is about 0 mm),(0 mm),–,–
CCC[C@@H]1C[C@@H](C(=O)N[C@@H]([C@H]2O[C@H](SC)[C@H](O)[C@@H](O)[C@H]2O)[C@@H](C)O)N(C)C1 [Lincomycin],S (S indicates resistance and represents that the size of an inhibition zone is greater than about 5 mm),(10 mm),–,–
CO[C@@H]1[C@@H](OC(N)=O)[C@@H](O)[C@H](Oc2ccc3c(O)c(NC(=O)c4ccc(O)c(CC=C(C)C)c4)c(=O)oc3c2C)OC1(C)C [Novabiocin],S (S indicates resistance and represents that the size of an inhibition zone is greater than about 5 mm),(7 mm),–,–
Cc1onc(-c2ccccc2)c1C(=O)N[C@@H]1C(=O)N2[C@@H]1SC(C)(C)[C@@H]2C(=O)O [Oxacillin],IS (IS indicates medium resistance and represents that the size of an inhibition zone is in a range of about 1 mm to about 5 mm),(2 mm),–,–
CC1(C)S[C@@H]2[C@H](NC(=O)Cc3ccccc3)C(=O)N2[C@H]1C(=O)O [Penicillin-G],IS (IS indicates medium resistance and represents that the size of an inhibition zone is in a range of about 1 mm to about 5 mm),(5 mm),–,–
CO[C@H]1/C=C/O[C@@]2(C)Oc3c(C)c(O)c4c(O)c(c(/C=N/N5CCN(C)CC5)c(O)c4c3C2=O)NC(=O)/C(C)=C\C=C\[C@H](C)[C@H](O)[C@@H](C)[C@@H](O)[C@@H](C)[C@H](OC(C)=O)[C@@H]1C [Rifampicin],S (S indicates resistance and represents that the size of an inhibition zone is greater than about 5 mm),(7 mm),–,–
[H]/N=C(/N)N[C@H]1[C@H](O)[C@@H](O)[C@H](O[C@@H]2O[C@@H](C)[C@](O)(C=O)[C@H]2O[C@@H]2O[C@@H](CO)[C@H](O)[C@@H](O)[C@@H]2NC)[C@@H](N/C(N)=N\[H])[C@@H]1O [Streptomycin],R (R indicates resistance and represents that the size of an inhibition zone is about 0 mm),(0 mm),–,–
CN[C@H](CC(C)C)C(=O)N[C@H]1C(=O)N[C@@H](CC(N)=O)C(=O)N[C@H]2C(=O)N[C@H]3C(=O)N[C@H](C(=O)N[C@H](C(=O)O)c4cc(O)cc(O)c4-c4cc3ccc4O)[C@H](O)c3ccc(c(Cl)c3)Oc3cc2cc(c3O[C@@H]2O[C@H](CO)[C@@H](O)[C@H](O)[C@H]2O[C@H]2C[C@](C)(N)[C@H](O)[C@H](C)O2)Oc2ccc(cc2Cl)[C@H]1O [Vancomycin],R (R indicates resistance and represents that the size of an inhibition zone is about 0 mm),(0 mm),–,–
Gentamycin,IS (IS indicates medium resistance and represents that the size of an inhibition zone is in a range of about 1 mm to about 5 mm),(3 mm),–,–
Neomycin,IS (IS indicates medium resistance and represents that the size of an inhibition zone is in a range of about 1 mm to about 5 mm),(3 mm),–,–
Polymyxin B,R (R indicates resistance and represents that the size of an inhibition zone is about 0 mm),(0 mm),–,–
